Assay results as given in PubChem BioAssay AID624254 (Broad Institute, 2012).
The source made the active and inactive calls. How the calls were made is not given here.

Experiment: Quorum luxo inducers, light production, v cholerae bh1651 luxod47e, confirmatory dose response (AID 624254)
Details: V. cholerae BH1651 luxOD47E, luciferase light induction, 6 h; at 50 µM (top of the series)

Row | SMILES | activation (light increase)
1 | CCOc1ccc(Nc2nc3c(c(=O)[nH]2)CCCC3)cc1 | inactive
2 | Fc1ccc(NCc2cn3ccccc3n2)cc1 | inactive
3 | CC(C)CCOc1cccc(OCC(=O)N(C)C2CCS(=O)(=O)C2)c1 (stereo not drawn) | inactive
4 | COc1ccc(OCc2cn3c(C)cc(C)nc3n2)cc1 | inactive
5 | COc1ccc(Cl)cc1NC(=O)CN1CCc2ccccc2C1 | inactive
6 | C[C@H]1CN([C@@H](C)CO)C(=O)c2cccc(NC(=O)C3CC3)c2O[C@@H]1CN(C)S(=O)(=O)c1cccs1 | inactive
7 | NNC(=O)c1nnn(-c2nonc2N)c1CN1CCCC1 | inactive
8 | Cc1ccc(OCC(=O)NC2CCS(=O)(=O)C2)c([N+](=O)[O-])n1 (stereo not drawn) | inactive
9 | CCOC(=O)CNc1c(-c2ccc(Cl)cc2)nc2cnccn12 | inactive
10 | O=C(NCCC(=O)N1CCN(c2ccc(F)cc2)CC1)c1ccco1 | inactive
11 | Cc1ccccc1-n1ccnc1SCC(=O)NCC1CCCO1 (stereo not drawn) | inactive
12 | COc1ccc(-c2nc(N)ncc2Oc2ccccc2Br)c(O)c1 | inactive
13 | C=CCNC(=O)CCCOc1ccc(C)cc1 | inactive
14 | O=C(c1cc(-c2ccc3c(c2)OCO3)on1)N1CCN(c2ccc(F)cc2)CC1 | inactive
15 | O=C(COC(=O)c1ccc(Cl)nc1)Nc1ccc2ccccc2c1 | inactive
16 | Cc1cc(C(=O)OCC(=O)Nc2ccccc2F)c(C)o1 | inactive
17 | COc1ccccc1NC(=O)CN1CCN(c2ccccc2F)CC1 | inactive
18 | CC(=O)c1cccc(NC(=O)CSc2nc(=O)n(CCN3CCOCC3)c3c2CCCC3)c1 | inactive
19 | O=C1C(=O)N(Cc2ccco2)C(c2cccc(Cl)c2)/C1=C(\O)c1ccc2c(c1)OCCO2 (stereo not drawn) | inactive
20 | O=S(=O)(Nc1ccccn1)c1ccc(Oc2ccccc2)cc1 | inactive
21 | COc1ccc(CCNC(=O)c2ccc(Cl)cc2Cl)cc1 | inactive
22 | Cc1nc2ccc(C(=O)OCC(=O)N(C)c3ccccc3)cc2nc1C | inactive
23 | COc1ccccc1NC(=O)Cc1ccc(-c2ccccc2)cc1 | inactive
24 | CCCCc1cc2c(cc1NC(=O)CN1CCCCC1)OCCO2 | inactive
25 | Cc1ccc(OCCCC(=O)N(C)CC(=O)Nc2ccccc2Cl)cc1 | inactive

Row | SMILES | activation (light increase)
26 | CCOC(=O)c1c(NC(=S)Nc2ccc(Cl)cc2)sc(C)c1C | inactive
27 | COc1cc(OC)c(OC)cc1CNC(C)C(O)c1ccccc1 (stereo not drawn) | inactive
28 | Cc1cccc(-c2noc(-c3ccccc3C(=O)NCC3CCCO3)n2)c1 (stereo not drawn) | inactive
29 | COc1ccc(C(=O)COC(=O)c2cccc(-n3cnnn3)c2)c(OC)c1 | inactive
30 | C=Cn1c(C(=O)O)ccc1-c1cccs1 | inactive
31 | O=C(Oc1ccc2ccc(OC(=O)N3CCOCC3)cc2c1)N1CCOCC1 | inactive
32 | O=c1c2ccccc2nnn1CSc1nnc2ccccn12 | inactive
33 | CC(=O)Nc1ccc(NC(=O)c2ccccc2C)cc1 | inactive
34 | CCOC(=O)CC(=O)Nc1nnc(C(C)C)s1 | inactive
35 | CCC(C)(C)n1nnnc1CN1CCN(c2nc3ccc(C)cc3cc2C#N)CC1 | inactive
36 | O=C(NCc1ccc2c(c1)OCO2)C1CCCN1C(=O)Nc1cccc(Cl)c1 (stereo not drawn) | inactive
37 | CCCCCn1c(SCC(=O)OCC)nc2cc(C(=O)N3CCC(C(N)=O)CC3)ccc2c1=O | inactive
38 | CCCn1nnnc1NCc1ccc(CC)cc1 | inactive
39 | Cc1ccc(C2(C)NC(=O)N(CC(=O)NCCC3=CCCCC3)C2=O)cc1 (stereo not drawn) | inactive
40 | CCCNC(=O)COC(=O)/C=C/c1ccco1 | inactive
41 | CC(=O)Nc1ccc(S(=O)(=O)NCCC(=O)OCC(=O)c2cc(C)ccc2C)cc1 | inactive
42 | Cc1ccc(-c2cc(C(=O)N3N=C(C(F)F)CC3(O)C(F)F)c3ccccc3n2)cc1C (stereo not drawn) | inactive
43 | COC(=O)c1cc(Br)ccc1OC(=O)c1cccnc1 | inactive
44 | CCOc1ccc(CNC(=O)Cn2c(=O)c3cccn3c3ccccc32)cc1 | inactive
45 | COC(C(=O)Nc1ccccc1C(=O)N1CCOCC1)c1ccccc1 (stereo not drawn) | inactive
46 | Cn1cnc(S(=O)(=O)Nc2ccc(C(F)(F)F)cc2)c1 | inactive
47 | COc1cc(C(C)=O)ccc1OCC(=O)Nc1cc(Cl)ccc1-n1cncn1 | inactive
48 | O=C(COc1cccc(Cl)c1)Nc1ccccc1N1CCCCC1 | inactive
49 | CCN(CCNC(=O)C1CCCN(S(=O)(=O)CC)C1)c1ccccc1 (stereo not drawn) | inactive
50 | NC(=O)c1nsc(C(=O)N(CC(=O)NCc2ccc(F)cc2)Cc2ccco2)c1N | inactive

Row | SMILES | activation (light increase)
51 | CCOc1ccc(/C(O)=C2/C(=O)C(=O)N(CCOCCO)C2c2ccccn2)cc1 (stereo not drawn) | inactive
52 | O=C(Oc1nsnc1N1CCCCC1)N1CCOCC1 | inactive
53 | CCN(CC(=O)Nc1c(F)cccc1F)C(=O)c1ccc(C)c(S(=O)(=O)N2CCCCC2)c1 | inactive
54 | CCOC(=O)c1cnc(SCC(=O)OCC(=O)NC2CCS(=O)(=O)C2)nc1N (stereo not drawn) | inactive
55 | CC(=O)c1cc2c(cc1NC(=O)Cc1c(C)noc1C)OCO2 | inactive
56 | Cc1cccc(C(=O)NCC(c2cccs2)N2CCOCC2)c1 (stereo not drawn) | inactive
57 | COCCNC(=S)N(CCCO)Cc1cc2cc3c(cc2[nH]c1=O)OCCO3 | inactive
58 | COc1ccccc1CNC(=O)COC(=O)c1n[nH]c2ccccc12 | inactive
59 | CC(C)CNC(=O)c1c2c(nc3ccccc13)-c1ccccc1CC2 | inactive
60 | O=C(Nc1ccc(S(=O)(=O)Nc2ncccn2)cc1)C1CC(=O)N(c2ccccc2)C1 (stereo not drawn) | inactive
61 | C=CCn1c(-c2cc(OC)cc(OC)c2)n[nH]c1=S | inactive
62 | COc1ccccc1NC(=O)Cc1csc(NC(=S)Nc2ccccc2)n1 | inactive
63 | O=[N+]([O-])c1ccc(NCCN2CCOCC2)c([N+](=O)[O-])c1 | inactive
64 | Cn1cccc1C(=O)OCc1cc(-c2ccco2)on1 | inactive
65 | O=C(NCc1nc(-c2ccccc2)no1)c1cccs1 | inactive
66 | COc1ccc(Cc2nn[nH]n2)cc1 | inactive
67 | CCc1ccc2c(c1)c1nnc(NN)nc1n2CC | inactive
68 | COc1ccccc1N1CCN(CCCOc2ccc(F)cc2)CC1 | inactive
69 | Cc1[nH]c2ccc3c(ncn3CCC#N)c2c1C | inactive
70 | COc1ccc(Cc2nnc(NC(=O)C3CC(=O)N(c4ccccc4C)C3)s2)cc1OC (stereo not drawn) | inactive
71 | Cc1csc(NC(=O)Cc2nn(C)c(=O)c3ccccc23)n1 | inactive
72 | CCc1sc(N(C(=O)Cc2ccccc2)c2ccc(F)cc2)nc1-c1ccccc1 | inactive
73 | O=C(NCC(F)(F)F)Nc1ncccn1 | inactive
